Legend:
Assay type in all cases: in vivo
[1] = tested on: muscle-specific ubiquitin E3 ligases (MuRF1 and MAFbx); experiment: mRNA levels of MuRF1 and MAFbx in gastrocnemius muscle by real-time PCR; settings: C57BL/6 mice, cisplatin-treated, Pae 10 and Pae 20 vs vehicle, FIG. 5
Procedure: (§1) In addition, cisplatin-treated mice orally administered the same volume of distilled water were designated as the vehicle group. After completion of drug treatment, the mice of each group were euthanized with 10 mg/kg alfaxalone (Jurox, Rutherford, Australia). Blood was collected in test tubes containing EDTA, and centrifuged, and plasma was separated therefrom. Gastrocnemius and quadriceps skeletal muscles were dissected and weighed. The skeletal muscles were rapidly frozen in liquid nitrogen to be used for RT-qPCR, Western blotting, and ELISA.
Total RNA was isolated from skeletal muscle using Qiazol (Qiagen, Germany), and then the mRNA levels of pro-inflammatory cytokines and muscle-specific ubiquitin E3 ligases (MuRF1 and MAFbx) were measured by real-time PCR.
(§2) In order to measure the mRNA and protein levels of major factors involved in muscle loss, muscle contraction, and muscle differentiation, the mRNA and protein levels in the skeletal muscle tissues from C57BL/6 mice were measured by real-time PCR and Western blotting.

[2] = tested on: C57BL/6 mice with Lewis lung carcinoma-induced cachexia; experiment: Muscle strength and endurance in C57BL/6 mice with Lewis lung carcinoma-induced cachexia
Procedure: As the experimental animals, 4-week-old female C57BL/6 mice and Balb/c mice weighing 18 g to 20 g were purchased from Raon Bio (Yongin, Korea), acclimatized in the laboratory animal facility for one week, and then used in the experiment. During the experiment period, the animals were provided with solid feed and water ad libitum, and the breeding room was maintained at a temperature of 20° C. to 24° C. and a relative humidity of 55% to 65% with a 12-hr light/12-hr dark cycle.
Mice were divided into a control group and a cachexia-induced group, and the cachexia-induced group was subdivided into a tumor cell-injected group, a tumor cell-injected and existing drug (MA, megestrol acetate)-administered group, and tumor cell-injected and paeoniflorin (Pae)-administered groups. Each group consisted of 10 animals.
Each mouse of the control group was injected subcutaneously with 100 μL of saline solution. For the cachexia-induced groups, Lewis lung carcinoma cells (C57BL/6 mice) or colon-26 carcinoma cells (Balb/c mice) were injected subcutaneously into the flank area of each mouse at a dose of 10^6 cells/100 μL/mouse. […] After completion of 9 days of administration, the muscle strength of the mice was measured using a grip strength test device (Bioseb, USA), and the endurance of the mice was measured using a treadmill device (Columbus Instrument, USA).

[3] = tested on: Balb/c mice with cisplatin-induced cachexia; experiment: Skeletal muscle function test in cisplatin-treated Balb/c mice; settings: oral paeoniflorin
Procedure: The animal experiments were performed in accordance with internationally accepted principles for laboratory animal use and care, and the corresponding study protocol was reviewed and approved by the Institutional Animal Care and Use Committee (IACUC) at Chung-Ang University (approval #2021-00022). Four-week-old female C57BL/6 mice and Balb/c mice were purchased from Raonbio Inc. (Yongin, Korea) and were provided with standard laboratory diet and water ad libitum in the animal facility of Chung-Ang University. After a week of acclimation, the mice were intraperitoneally injected three times with 3 mg/kg/day cisplatin, suspended in 200 μL saline, every other day. […]
A skeletal muscle function test was conducted one day before euthanasia. Muscle strength of each mouse was measured by the grip strength of front paws, and endurance of each mouse was measured by treadmill running time until exhaustion. Motor coordination was measured by retention time on a rotating cylinder with a diameter of 3 cm (Castro and Kuang, 2017). The grip strength of each mouse was measured using a grip strength meter (Bio-GS3, Bioseb, Vitrolles, France). The treadmill running time of each mouse was measured on a treadmill (Exer-3/6, Columbus Instruments, […], USA). The ability of each mouse to stay on a rotating cylinder was measured using a rotarod apparatus (Panlab, Barcelona, Spain).

[4] = tested on: myosin heavy chain (MyHC) and myoblast determination protein (MyoD); experiment: Protein levels of MyHC and MyoD in gastrocnemius muscle by Western blotting; settings: C57BL/6 mice, cisplatin-treated, Pae 10 and Pae 20 vs vehicle
Procedure: as §1
Proteins were extracted from skeletal muscle using NucleoSpin kits (Macherey-Nagel, Duren, Germany) and quantified using the BCA Protein Assay Kit (Pierce, Rockford, IL, USA). Anti-β-actin antibody was used to quantify protein loading. For myosin protein (MyHC, myosin heavy chain), myogenic factor (MyoD), and NF-κB signaling system (p-IKK, IKK, p-IκB, and IκB), protein levels in the gastrocnemius muscle were measured by Western blotting. Band intensities were quantified using ImageJ software (NIH, Bethesda, MD, USA).
as §2

TNF-α, IL-6 and IL-1β = experiment: Protein levels of pro-inflammatory cytokines in gastrocnemius muscle, Balb/c mice; settings: cisplatin-treated
Procedure: as §1
The levels of TNF-α and interleukin (IL)-6 were measured using respective mouse ELISA kits (Invitrogen, Waltham, MA, USA). IL-1β and GDF-15 levels were measured using respective Quantikine ELISA kits (R&D Systems, Minneapolis, MN, USA).

SMILES: C[C@@]12C[C@@]3(O)O[C@@H](O1)[C@]1(COC(=O)c4ccccc4)[C@H]3C[C@@]12O[C@@H]1O[C@H](CO)[C@@H](O)[C@H](O)[C@H]1O [paeoniflorin]
- MAFbx mRNA level [1]: decreased
- MuRF1 mRNA level [1]: decreased
- muscle strength ([2]; C57BL/6 mice, Lewis lung carcinoma-injected, paeoniflorin orally for 9 days, FIG. 16A): significantly increased
- endurance ([2]; C57BL/6 mice, Lewis lung carcinoma-injected, paeoniflorin orally for 9 days, FIG. 16B): significantly increased
- effect on muscle function compared with megestrol acetate (MA) ([2]; Lewis lung carcinoma C57BL/6 mice, paeoniflorin 10 to 20 mg/kg/day vs megestrol acetate 160 mg/kg/day): better effect
- muscle strength ([3]; FIG. 4A): similarly restored
- endurance ([3]; FIG. 4B): similarly restored
- MyHC protein level ([4]; FIGS. 6C, 7A): increased
- MyoD protein level ([4]; FIGS. 6D, 7B): increased
- TNF-α protein level in the gastrocnemius muscle (TNF-α, IL-6 and IL-1β; FIG. 9A): similarly obtained
- IL-6 protein level in the gastrocnemius muscle (TNF-α, IL-6 and IL-1β; FIG. 9B): similarly obtained
- IL-1β protein level in the gastrocnemius muscle (TNF-α, IL-6 and IL-1β; FIG. 9C): similarly obtained

Reference: patent publication US20240325420A1, “COMPOSITION INCLUDING PAEONIFLORIN FOR PREVENTION OR TREATMENT OF CACHEXIA AND MUSCLE LOSS” (CHUNG ANG UNIVERSITY INDUSTRY ACADEMIC COOPERATION …, priority 2021, published 2024)
